Laboratory results as given in PubChem BioAssay (NCI).
Where “and” joins values, the source holds several entries; their conditions need not be identical. Identical values can stand only once.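 Compound exposure: 48 hours, 5 concentrations, 96-well plates. GI50 is the concentration that inhibits growth by half. TGI marks complete inhibition of growth.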

Columns and labels:
Assay in all cases: NCI tumour cell line growth inhibition, 48 h
[1] = tested on: NCI/ADR-RES ovarian
[2] = tested on: KM12 colon
[3] = tested on: RPMI-8226 leukemia
[4] = tested on: SF-539 CNS
[5] = tested on: EKVX NSCLC
[6] = tested on: SW-620 colon
[7] = tested on: NCI-H460 lung
[8] = tested on: HS 578T breast
[9] = tested on: HT29 colon
[10] = tested on: UO-31 renal
[11] = tested on: 786-0 renal
[12] = tested on: CCRF-CEM leukemia
[13] = tested on: T-47D breast

`COC(CN(C(C)=O)C1CCC2(SCCS2)c2[nH]c3ccccc3c21)OC` (configuration not stated) showed a TGI [1] of over 100 µM, a TGI [2] of over 100 µM and a TGI [3] of over 100 µM. It also gave a TGI [4] of over 100 µM, a TGI [5] of over 100 µM and a TGI [6] of over 100 µM. It also gave a TGI [7] of over 100 µM, a TGI [8] of over 100 µM and a TGI [9] of over 100 µM. The TGI [10] was over 100 µM, the TGI [11] was over 100 µM and the TGI [12] was over 100 µM.

With `COc1ccc(-n2[nH]nc(C(N)=O)c2=O)cc1` the TGI [1] was over 100 µM, the TGI [2] was over 100 µM and the TGI [3] was over 100 µM. The TGI [5] was over 100 µM, the TGI [13] was over 100 µM and the TGI [6] was over 100 µM. For the same compound, the TGI [7] was over 100 µM, the TGI [8] was over 100 µM and the TGI [9] was over 100 µM. It also gave a TGI [10] of over 100 µM, a TGI [11] of over 100 µM and a TGI [12] of over 100 µM.

`O=C1c2cc(Cl)ccc2NC(=NC2CCCC2)C2CSCN12` (configuration not stated) gave a TGI [1] of over 100 µM, a TGI [2] of over 100 µM and a TGI [3] of over 100 µM. The TGI [5] was over 100 µM, the TGI [13] was over 100 µM and the TGI [6] was over 100 µM. For the same compound, the TGI [7] was over 100 µM, the TGI [8] was over 100 µM and the TGI [9] was over 100 µM. For the same compound, the TGI [10] was over 100 µM, the TGI [11] was over 100 µM and the TGI [12] was over 100 µM.

With `CC(C)(C)OC(=O)NC1CC2(C=C(Br)C(=O)C(Br)=C2)OC1=O` (configuration not stated) the TGI [1] was 34.8 µM, the TGI [2] was 45.1 µM and the TGI [3] was 4.21 µM. For the same compound, the TGI [4] was 42.5 µM, the TGI [5] was 27.5 µM and the TGI [13] was 6.39 µM. The TGI [6] was 5.79 µM, the TGI [7] was 38.5 µM and the TGI [8] was 51.3 µM. The TGI [9] was 18.6 µM, the TGI [10] was 13.8 µM and the TGI [11] was 7.5 µM.

With `Cc1ccccc1OC(C)C(=O)NN1C(=O)CSC1c1ccc(Cl)cc1` (configuration not stated) the TGI [1] was over 100 µM, the TGI [2] was over 100 µM and the TGI [3] was over 61 µM. For the same compound, the TGI [4] was over 63.1 µM, the TGI [5] was over 100 µM and the TGI [13] was over 100 µM. The TGI [6] was over 81.2 µM, the TGI [7] was over 56.8 µM and the TGI [8] was over 100 µM. It also gave a TGI [9] of 38.6 µM, a TGI [10] of over 100 µM and a TGI [11] of 34.8 µM.

`CN1C/C(=C\c2cccs2)C(O)/C(=C/c2cccs2)C1` (configuration not stated) gave a TGI [1] of over 100 µM, a TGI [2] of over 100 µM and a TGI [3] of 89.9 µM. The TGI [5] was over 100 µM, the TGI [13] was 74.2 µM and the TGI [6] was over 100 µM. It also gave a TGI [7] of over 100 µM, a TGI [8] of over 100 µM and a TGI [9] of over 100 µM. The TGI [10] was over 100 µM, the TGI [11] was over 100 µM and the TGI [12] was 52.7 µM.

In the case of `CCOC(=O)c1[nH]c(Br)c(-c2ccc(OC)c(OC)c2)c1Br`, the TGI [1] is reported as over 100 µM, the GI50 [2] is reported as 0.0172 µM and the TGI [3] is reported as 16.6 µM. For the same compound, the GI50 [4] was 0.0116 µM, the TGI [4] was 0.0428 µM and 0.0128 µM and the GI50 [5] was 10.4 µM. It also gave a TGI [5] of 43.3 µM, a TGI [13] of 72.5 µM and a TGI [6] of 38.1 µM. The GI50 [7] was 19.2 µM, the TGI [7] was over 100 µM and the GI50 [9] was 0.0258 µM. For the same compound, the TGI [9] was 0.0667 µM and 0.308 µM, the TGI [10] was 9.96 µM and the TGI [11] was 11.7 µM.

With `O=C(/C=C/c1ccccc1)CSc1ncn[nH]1` the TGI [1] was over 100 µM, the TGI [2] was over 100 µM and the TGI [3] was over 100 µM. It also gave a TGI [4] of over 100 µM, a TGI [5] of over 100 µM and a TGI [6] of over 100 µM. For the same compound, the TGI [7] was over 100 µM, the TGI [9] was over 100 µM and the TGI [10] was over 100 µM. The TGI [11] was over 100 µM and the TGI [12] was over 100 µM.

Compound `CC1(C)OC2[C@@H](CO[C@@]3([C@@H](O)CCO)OC(C)(C)O[C@@H]23)O1` (some centres not stated) has a TGI [1] of over 100 µM, a TGI [2] of over 100 µM and a TGI [3] of over 100 µM. For the same compound, the TGI [4] was over 100 µM, the TGI [5] was over 100 µM and the TGI [13] was over 100 µM. It also gave a TGI [6] of over 100 µM, a TGI [7] of over 100 µM and a TGI [9] of over 100 µM. For the same compound, the TGI [10] was over 100 µM, the TGI [11] was over 100 µM and the TGI [12] was over 100 µM.

`CCOC(=O)c1nnsc1N/N=C\c1ccc([N+](=O)[O-])cc1` gave a TGI [1] of over 100 µM, a TGI [2] of over 100 µM and a TGI [3] of over 100 µM. The TGI [5] was over 100 µM, the TGI [13] was over 100 µM and the TGI [6] was over 100 µM. It also gave a TGI [7] of over 100 µM, a TGI [8] of over 100 µM and a TGI [9] of over 100 µM. The TGI [10] was over 100 µM, the TGI [11] was over 100 µM and the TGI [12] was over 100 µM.

`COc1c(/C=C/C(C)(C)O)cc(C2CC(=O)c3c(O)cc(O)cc3O2)cc1CC=C(C)C` (configuration not stated) showed a TGI [1] of 32 µM, a TGI [2] of 20.7 µM and a TGI [3] of 28.4 µM. For the same compound, the TGI [4] was 17.4 µM, the TGI [13] was 33.2 µM and the TGI [6] was over 50 µM. For the same compound, the TGI [7] was 16.5 µM, the TGI [8] was 24.9 µM and the TGI [9] was 16.7 µM. For the same compound, the TGI [10] was 1.6 µM, the TGI [11] was 18.1 µM and the TGI [12] was over 50 µM.

`O=c1cc(CO)oc2c3c(cc(O)c12)OCC(COC1OC(CO)C(O)C(O)C1O)=CC3` (configuration not stated) showed a TGI [2] of over 100 µM, a TGI [3] of over 100 µM and a TGI [4] of over 100 µM. For the same compound, the TGI [5] was over 100 µM, the TGI [6] was over 100 µM and the TGI [7] was over 100 µM. The TGI [9] was over 100 µM, the TGI [10] was over 100 µM and the TGI [11] was over 100 µM. The TGI [12] was over 100 µM.

In the case of `CCOc1ccc2[nH]c3c(C)c4ccncc4c(C)c3c2c1`, the TGI [2] is reported as 2.22 µM, the TGI [4] is reported as 2.94 µM and the TGI [5] is reported as 2.9 µM. It also gave a TGI [6] of 1.75 µM, a TGI [7] of 1.68 µM and a TGI [9] of 2.18 µM. The TGI [10] was 13.9 µM, the TGI [11] was 2.2 µM and the TGI [12] was over 100 µM.

For `COc1ccc(C(c2c(O)c3ccccc3n(-c3ccccc3)c2=O)c2c(O)c3ccccc3n(-c3ccccc3)c2=O)cc1`, the TGI [2] was over 100 µM, the TGI [3] was over 100 µM and the TGI [4] was over 100 µM. It also gave a TGI [5] of over 100 µM, a TGI [6] of over 100 µM and a TGI [10] of over 100 µM. For the same compound, the TGI [11] was over 100 µM and the TGI [12] was over 100 µM.

`COC(=O)CCC1=C(CC(=O)OC)C(C)(OC)N=C1NC(=O)OCc1ccccc1` (configuration not stated) gave a TGI [1] of over 100 µM, a TGI [2] of over 100 µM and a TGI [3] of over 100 µM. It also gave a TGI [4] of over 100 µM, a TGI [5] of over 100 µM and a TGI [13] of over 100 µM. For the same compound, the TGI [6] was over 100 µM, the TGI [7] was over 100 µM and the TGI [9] was over 100 µM. For the same compound, the TGI [10] was over 100 µM, the TGI [11] was over 100 µM and the TGI [12] was over 100 µM.

`O=C1C(Br)=C(c2ccccc2)O/C1=C/C(=O)c1ccc(Br)cc1` was tested, and the TGI [2] was over 100 µM, the TGI [3] was 62.7 µM and the TGI [4] was over 100 µM. The TGI [5] was over 100 µM, the TGI [13] was over 100 µM and the TGI [6] was 47.3 µM. It also gave a TGI [7] of over 100 µM, a TGI [8] of over 100 µM and a TGI [9] of over 100 µM. For the same compound, the TGI [10] was over 100 µM, the TGI [11] was 47 µM and the TGI [12] was over 100 µM.

Work on `COc1ccc(C(=O)O[C@H]2[C@@H]3C=CO[C@@H](OC4OC(CO)C(O)C(O)C4O)[C@@H]3[C@@]3(CO)O[C@@H]23)cc1O` (some centres not stated) yielded a TGI [2] of over 100 µM, a TGI [3] of over 100 µM and a TGI [4] of over 100 µM. It also gave a TGI [5] of over 100 µM, a TGI [6] of over 100 µM and a TGI [7] of over 100 µM. It also gave a TGI [9] of over 100 µM, a TGI [10] of over 100 µM and a TGI [11] of over 100 µM. It also gave a TGI [12] of over 100 µM.

Work on `NC1=C(NC(=O)Cc2ccccc2F)C(=O)c2ccccc2C1=O` yielded a TGI [2] of over 100 µM, a TGI [3] of over 100 µM and a TGI [4] of 62 µM. For the same compound, the TGI [5] was over 100 µM, the TGI [6] was over 100 µM and the TGI [7] was over 100 µM. The TGI [9] was over 100 µM, the TGI [10] was over 100 µM and the TGI [11] was 98.2 µM. The TGI [12] was over 100 µM.

`C/C(=N\N=C(\N)SB(F)F)c1ccc2ccccc2c1` was tested, and the TGI [1] was over 100 µM, the TGI [2] was over 100 µM and the TGI [4] was over 100 µM. The TGI [5] was over 100 µM, the TGI [13] was over 100 µM and the TGI [6] was over 100 µM. It also gave a TGI [7] of over 100 µM, a TGI [8] of over 100 µM and a TGI [9] of over 100 µM. It also gave a TGI [10] of over 100 µM, a TGI [11] of over 100 µM and a TGI [12] of 56.7 µM.
